Results as given in patent US12252457B2, “Compositions and methods for reducing tactile dysfunction, anxiety, and social impairment” (President and Fellows of Harvard College, priority 2018, dated 2025).

Tested on: low-threshold mechanoreceptor neurons (LTMRs)
Assay: In vivo multiunit electrode recordings in the L4 DRG
Set-up: species or system mouse
From the text: FIGS. 20A-20O show isoguvacine attenuates tactile sensitivity through reduced excitability of peripheral, low-threshold mechanosensory neurons. FIG. 20A: Diagram for in vivo dorsal root ganglion (DRG) multi-unit electrode recordings, showing tetrode placement into the left L4 ganglia. FIG. 20B: Activity traces of two putative neurons (units) in response to a brush stimulus. FIG. 20C: Activity traces of two putative neurons (units) in response to a light air puff stimulus (1 PSI). FIGS. 20D-20G: Example unit identified during the spike sorting process. Average waveform at each electrode site (FIG. 20D, FIG. 20E), and inter-spike interval (FIG. 20F, FIG. 20G). FIG. 20H: Representative activity raster plots for multiple putative LTMRs in multiple mice over the duration of a recording experiment in controls and Advillin^Cre; Gabrb3^f/f mice. Mice received a subcutaneous injection of either saline or isoguvacine (2 mg/kg) during the experiment, and activity of light-touch responsive units in response to a light brush stimulus was assessed over a 90-minute period. FIG. 20I: Average firing frequency of LTMRs over the duration of each recording experiment, following subcutaneous injection of either saline or isoguvacine (2 mg/kg). Repeated measures, two-way ANOVA with post-hoc Dunnett's test, *p<0.05. FIG. 20J: Representative activity raster plots for putative LTMRs in multiple mice over the duration of recordings in controls and Shank3B^+/− mice. Mice received a subcutaneous injection of either saline or isoguvacine (2 mg/kg) during the experiment, and activity of light-touch responsive units was assessed over a 90-minute period. FIG. 20K: Average baseline spike rate of LTMRs in response to brush or air puff stimulus, in control and Shank3B^+/− mice. Student's t-test, *p<0.05. FIG. 20L: Average firing frequency of LTMRs over the duration of each recording experiment, following subcutaneous injection of either saline or isoguvacine (2 mg/kg). Repeated measures, two-way ANOVA with post-hoc Dunnett's test, *p<0.05. […] Two-way ANOVA with post-hoc Sidak's test, *, p<0.05. FIG. 20N: Response to a light air puff stimulus alone in mice following i.p. administration of either saline or 2 mg/kg isoguvacine treatment. Responses are expressed as percent of startle response to a 125 dB noise. Two-way ANOVA with post-hoc Sidak's test, *, p<0.05. FIG. 20O: Magnitude of startle response to a 125 dB noise in mice following i.p. administration of either saline or 2 mg/kg isoguvacine treatment. Responses are expressed as percent of startle response to a 125 dB noise. Two-way ANOVA with post-hoc Sidak's test, *, p<0.05.
To test the hypothesis that isoguvacine exerts its effects by acting directly on primary somatosensory neurons, electrophysiological recordings were performed both in vitro and in vivo. DRG cultures from Mecp2 and Shank3 mutant and control littermates were first produced to assess excitability of these neurons in vitro using whole cell patch-clamp recordings. […] It was next asked whether administration of isoguvacine would reduce mechanosensory neuron sensitivity in vivo by performing multiunit electrode recordings in the L4 DRG of urethane- and isoflurane-anesthetized mice (FIG. 20A). […] Once LTMR units were identified, animals were administered a subcutaneous injection of either saline vehicle or isoguvacine (2 mg/kg) and then sensitivity and firing frequency in response to tactile stimuli were monitored over a 90-minute period for each identified unit. […]

Q: With `O=C(O)C1=CCNCC1` [Isoguvacine, isoguvacine] as the molecule, how does the “proprioceptor sensitivity and firing” value (2 mg/kg subcutaneous) read?
A: unaffected

Q: And the “response thresholds to light touch stimuli and spiking of glabrous- and hairy-skin innervating Aβ LTMRs” value (2 mg/kg subcutaneous)?
A: increased response thresholds to light touch stimuli and reduced spiking

Q: What about the “tactile stimulus-evoked LTMR sensitivity” value (Advillin^Cre, Gabrb3^f/f mice, 2 mg/kg subcutaneous) of the same molecule?
A: no changes in tactile stimulus-evoked LTMR sensitivity

Q: What about the LTMR firing (Shank3B and control littermates, 2 mg/kg subcutaneous) of the same molecule?
A: attenuated firing

Q: And the “tactile stimulus-evoked (brush or air puff) responsivity of LTMRs” value (control mice, sixty minutes after 2 mg/kg subcutaneous)?
A: significantly decreased
